The source of these data is BindingDB's records for doi:10.1016/j.bmcl.2010.06.021 (Shujitsu University, 2010).

One may read the IC50 as the point on the concentration scale where inhibition reaches its midpoint. The low end stands for greater potency in that assay, the high end for weaker potency in that assay.

The structures appear in SMILES notation. A value given as a limit tells only on which side of the number the result lay.

In the test the target is Beta-secretase 1 (Homo sapiens, UniProt P56817). As to the kind of experiment: Inhibition of BACE1 after 60 mins by FRET assay.
Chain of Beta-secretase 1 (P56817 whole entry): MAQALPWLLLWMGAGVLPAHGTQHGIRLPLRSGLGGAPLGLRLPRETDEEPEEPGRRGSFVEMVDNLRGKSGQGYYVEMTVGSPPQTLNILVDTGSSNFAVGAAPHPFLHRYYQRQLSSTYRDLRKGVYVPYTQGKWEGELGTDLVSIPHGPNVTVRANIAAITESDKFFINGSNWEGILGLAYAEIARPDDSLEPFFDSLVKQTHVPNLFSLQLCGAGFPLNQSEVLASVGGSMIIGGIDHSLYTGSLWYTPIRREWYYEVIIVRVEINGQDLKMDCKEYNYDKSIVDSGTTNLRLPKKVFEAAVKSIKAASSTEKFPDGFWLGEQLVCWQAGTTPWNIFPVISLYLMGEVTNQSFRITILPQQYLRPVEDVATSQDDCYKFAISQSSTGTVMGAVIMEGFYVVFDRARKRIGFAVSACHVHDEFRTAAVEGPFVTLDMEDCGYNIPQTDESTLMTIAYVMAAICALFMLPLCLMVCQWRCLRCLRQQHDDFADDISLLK
Consider `O=c1cc(O)cc2oc(-c3ccc(O)c(-c4c(O)cc5oc(-c6ccc(O)cc6)cc(=O)c5c4O)c3)cc(O)c1-2`, for which the IC50 was > 10 µM.
The value for `COc1ccc(-c2cc(=O)c3c(O)cc(OC)c(-c4cc(-c5cc(O)c6c(=O)cc(O)cc-6o5)ccc4OC)c3o2)cc1` [kayaflavone] was > 10 µM; that for `COc1ccc(-c2cc(=O)c3c(O)cc(OC)c(-c4cc(-c5cc(O)c6c(=O)cc(O)cc-6o5)ccc4O)c3o2)cc1` [7'',4'''-dimethylamentoflavone] was > 10 µM.
The value for `COc1ccc(-c2cc(=O)c3c(O)cc(OC)c(-c4cc(-c5cc(O)c6c(=O)cc(OC)cc-6o5)ccc4OC)c3o2)cc1` [7,4',7'',4'''-O-methyl-amentoflavone] was > 10 µM.
As to `COc1ccc(-c2cc(O)c3c(=O)cc(O)cc-3o2)cc1-c1c(OC)cc(O)c2c(=O)cc(-c3ccc(O)cc3)oc12` [4',7''-di-O-methyl-amentoflavone], the half-maximal inhibitory concentration (IC50) was > 10 µM.
As for `COc1ccc(-c2cc(=O)c3c(O)cc(O)c(-c4cc(-c5cc(O)c6c(=O)cc(OC)cc-6o5)ccc4OC)c3o2)cc1` [sciadopitisin], the figure is > 10 µM.
As for `COc1ccc(-c2cc(=O)c3c(O)cc(OC)c(-c4cc(-c5cc(O)c6c(=O)cc(OC)cc-6o5)ccc4O)c3o2)cc1` [heveaflavone], the figure is > 10 µM; as for `O=c1cc(O)cc2oc(-c3ccc(Oc4c(O)cc5oc(-c6ccc(O)cc6)cc(=O)c5c4O)cc3)cc(O)c1-2`, > 10 µM.
The value for `COc1cc2oc(-c3ccc(OC)c(-c4c(OC)cc(O)c5c(=O)cc(-c6ccc(O)cc6)oc45)c3)cc(O)c-2c(=O)c1` [7-O-methyl-isoginkgetin] was > 10 µM.
